Experiment [1] concerns the target Melanin-concentrating hormone receptor 1 (Homo sapiens, UniProt Q99705). Briefly: Fluorescence-based counterscreen for antagonists of the G-protein coupled receptor 7 (GPR7): cell-based high throughput dose response assay to identify antagonists of the melanin-concentrating hormone receptor 1 (MCHR1). The class given is functional.
The target in experiment [2] is Dual specificity protein phosphatase 3 (Homo sapiens, UniProt P51452). As to the kind of experiment: inhibition constants for human DUSP3 – biochemical, colorimetric, SAR follow-up (AID 2004).
In experiment [3] the target is Cyclin-dependent kinase 5/CDK5 activator 1 (Homo sapiens, UniProt Q00535). Briefly: blockade of human CDK5 activity – biochemical, cherry-picked samples, set 2, dose response (AID 504545).
Experiment [4] is described as follows: Luminescence Cell-Based Dose Retest to Confirm Inhibitors of Cancer Stem Cells. [Related pubchem assays (depositor defined):AID2717, AID2721]. The class given is functional. Particulars: Homo sapiens.
Experiment [5] deals with Neurotensin receptor type 1 (Homo sapiens, UniProt P30989). In kind it is functional.
The target of experiment [6] is T1, Leucine aminopeptidase (Plasmodium falciparum 3D7, UniProt Q8IL11).
T1 sequence (Q8IL11 whole entry): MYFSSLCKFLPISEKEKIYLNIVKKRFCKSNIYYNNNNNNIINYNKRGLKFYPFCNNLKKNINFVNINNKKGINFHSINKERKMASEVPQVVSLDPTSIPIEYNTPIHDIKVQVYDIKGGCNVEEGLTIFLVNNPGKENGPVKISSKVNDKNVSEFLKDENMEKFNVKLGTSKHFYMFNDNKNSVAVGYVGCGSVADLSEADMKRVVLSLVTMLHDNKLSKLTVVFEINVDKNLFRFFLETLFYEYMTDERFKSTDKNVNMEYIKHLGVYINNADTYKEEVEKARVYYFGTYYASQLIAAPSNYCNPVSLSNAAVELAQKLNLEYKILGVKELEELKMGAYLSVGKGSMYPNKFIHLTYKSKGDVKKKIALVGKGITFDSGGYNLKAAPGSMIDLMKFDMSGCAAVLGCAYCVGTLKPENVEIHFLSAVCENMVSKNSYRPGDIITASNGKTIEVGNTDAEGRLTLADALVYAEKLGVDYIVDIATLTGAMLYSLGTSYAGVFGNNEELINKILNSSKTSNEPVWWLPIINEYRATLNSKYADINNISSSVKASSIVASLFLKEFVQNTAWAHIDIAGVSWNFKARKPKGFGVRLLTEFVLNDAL
Briefly: P. falciparum M17LAP inhibitors, primary screen, biochemical, fluorogenic H-Leu-NHMec substrate, 1536-well (AID 1619). The class given is functional.

The nature of experiment [7]: Cytotoxicity screening for potential Inhibitors of Bacterial Capsule Biogenesis. [Related pubchem assays (depositor defined):AID488970]. In kind it is functional.
The nature of experiment [8]: antiviral protection against BTV-induced cell death – arbovirus, BSR cells, confirmation (AID 1250).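 Further: protection from viral cytopathic effect measured as cell viability by ATP luminescence.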 In kind it is functional.
Experiment [9] can be described thus: CCR5-tropic HIV-1 fusion blockers – cell-based, CCR5-tropic Env, dose response (AID 2279). The class given is functional.
The target of experiment [10] is T2, Fatty acid synthase (Homo sapiens, UniProt P49327). Briefly: inhibition of human FAS-TE enzyme activity – biochemical, kinetic fluorescence intensity, dose response (AID 624326).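 Further: rate of fluorescence rise from hydrolysis of a fluorogenic O-methyl fluorescein ester substrate.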 The class given is functional.
The target in experiment [11] is Aminopeptidase N (Plasmodium falciparum FcB1/Columbia, UniProt O96935). As to the kind of experiment: malaria alanyl aminopeptidase activity blockers – biochemical, fluorogenic H-Leu-NHMec substrate, 1536-well (AID 1445). Details: species or system Plasmodium falciparum 3D7, 3D7.
Experiment [12] is described as follows: NIH-3T3 fibroblast cytotoxicity, dose response, cytotoxicity control, cell-based, fluorescence, Alamar Blue, secondary assay (AID 2327).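 Further: NIH-3T3 mouse fibroblasts cultured with fluconazole at 8 µg/mL.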 The class given is functional. Background: Alamar Blue is a resazurin reagent that responds to reducing activity.
The target in experiment [13] is T2, Fatty acid synthase. Briefly: inhibition of human FAS-TE enzyme activity – biochemical, endpoint fluorescence intensity, uHTS hits, dose response (AID 624327).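 Further: fluorescence from hydrolysis of an O-methyl fluorescein acyl ester substrate by the enzyme.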 The class given is functional.
The nature of experiment [14]: fluconazole-exposed Candida albicans growth modulators – fluorescence, retest, confirmation (AID 2467). The class given is functional, cell-based.
For experiment [15], the target named is T3, Eukaryotic translation initiation factor 2-alpha kinase 3 (Homo sapiens, UniProt Q9NZJ5). Briefly: Counterscreen assay for PERK inhibitors: Dose response cell-based high throughput screening assay to measure inhibition of PERK at 6 hours. [Related pubchem assays: 1522, 1416 ]. The class given is functional. A general note: Counterscreens check selectivity or assay interference.

For experiment [16], the target named is T3, Eukaryotic translation initiation factor 2-alpha kinase 3. Briefly: Dose response cell-based high-throughput screening assay to measure PERK inhibition. [Related pubchem assays: 1416 ]. The class given is functional.

Activity calls are given as the source filed them. A value given as a limit tells only on which side of the number the result lay.

T2 sequence (P49327 whole entry): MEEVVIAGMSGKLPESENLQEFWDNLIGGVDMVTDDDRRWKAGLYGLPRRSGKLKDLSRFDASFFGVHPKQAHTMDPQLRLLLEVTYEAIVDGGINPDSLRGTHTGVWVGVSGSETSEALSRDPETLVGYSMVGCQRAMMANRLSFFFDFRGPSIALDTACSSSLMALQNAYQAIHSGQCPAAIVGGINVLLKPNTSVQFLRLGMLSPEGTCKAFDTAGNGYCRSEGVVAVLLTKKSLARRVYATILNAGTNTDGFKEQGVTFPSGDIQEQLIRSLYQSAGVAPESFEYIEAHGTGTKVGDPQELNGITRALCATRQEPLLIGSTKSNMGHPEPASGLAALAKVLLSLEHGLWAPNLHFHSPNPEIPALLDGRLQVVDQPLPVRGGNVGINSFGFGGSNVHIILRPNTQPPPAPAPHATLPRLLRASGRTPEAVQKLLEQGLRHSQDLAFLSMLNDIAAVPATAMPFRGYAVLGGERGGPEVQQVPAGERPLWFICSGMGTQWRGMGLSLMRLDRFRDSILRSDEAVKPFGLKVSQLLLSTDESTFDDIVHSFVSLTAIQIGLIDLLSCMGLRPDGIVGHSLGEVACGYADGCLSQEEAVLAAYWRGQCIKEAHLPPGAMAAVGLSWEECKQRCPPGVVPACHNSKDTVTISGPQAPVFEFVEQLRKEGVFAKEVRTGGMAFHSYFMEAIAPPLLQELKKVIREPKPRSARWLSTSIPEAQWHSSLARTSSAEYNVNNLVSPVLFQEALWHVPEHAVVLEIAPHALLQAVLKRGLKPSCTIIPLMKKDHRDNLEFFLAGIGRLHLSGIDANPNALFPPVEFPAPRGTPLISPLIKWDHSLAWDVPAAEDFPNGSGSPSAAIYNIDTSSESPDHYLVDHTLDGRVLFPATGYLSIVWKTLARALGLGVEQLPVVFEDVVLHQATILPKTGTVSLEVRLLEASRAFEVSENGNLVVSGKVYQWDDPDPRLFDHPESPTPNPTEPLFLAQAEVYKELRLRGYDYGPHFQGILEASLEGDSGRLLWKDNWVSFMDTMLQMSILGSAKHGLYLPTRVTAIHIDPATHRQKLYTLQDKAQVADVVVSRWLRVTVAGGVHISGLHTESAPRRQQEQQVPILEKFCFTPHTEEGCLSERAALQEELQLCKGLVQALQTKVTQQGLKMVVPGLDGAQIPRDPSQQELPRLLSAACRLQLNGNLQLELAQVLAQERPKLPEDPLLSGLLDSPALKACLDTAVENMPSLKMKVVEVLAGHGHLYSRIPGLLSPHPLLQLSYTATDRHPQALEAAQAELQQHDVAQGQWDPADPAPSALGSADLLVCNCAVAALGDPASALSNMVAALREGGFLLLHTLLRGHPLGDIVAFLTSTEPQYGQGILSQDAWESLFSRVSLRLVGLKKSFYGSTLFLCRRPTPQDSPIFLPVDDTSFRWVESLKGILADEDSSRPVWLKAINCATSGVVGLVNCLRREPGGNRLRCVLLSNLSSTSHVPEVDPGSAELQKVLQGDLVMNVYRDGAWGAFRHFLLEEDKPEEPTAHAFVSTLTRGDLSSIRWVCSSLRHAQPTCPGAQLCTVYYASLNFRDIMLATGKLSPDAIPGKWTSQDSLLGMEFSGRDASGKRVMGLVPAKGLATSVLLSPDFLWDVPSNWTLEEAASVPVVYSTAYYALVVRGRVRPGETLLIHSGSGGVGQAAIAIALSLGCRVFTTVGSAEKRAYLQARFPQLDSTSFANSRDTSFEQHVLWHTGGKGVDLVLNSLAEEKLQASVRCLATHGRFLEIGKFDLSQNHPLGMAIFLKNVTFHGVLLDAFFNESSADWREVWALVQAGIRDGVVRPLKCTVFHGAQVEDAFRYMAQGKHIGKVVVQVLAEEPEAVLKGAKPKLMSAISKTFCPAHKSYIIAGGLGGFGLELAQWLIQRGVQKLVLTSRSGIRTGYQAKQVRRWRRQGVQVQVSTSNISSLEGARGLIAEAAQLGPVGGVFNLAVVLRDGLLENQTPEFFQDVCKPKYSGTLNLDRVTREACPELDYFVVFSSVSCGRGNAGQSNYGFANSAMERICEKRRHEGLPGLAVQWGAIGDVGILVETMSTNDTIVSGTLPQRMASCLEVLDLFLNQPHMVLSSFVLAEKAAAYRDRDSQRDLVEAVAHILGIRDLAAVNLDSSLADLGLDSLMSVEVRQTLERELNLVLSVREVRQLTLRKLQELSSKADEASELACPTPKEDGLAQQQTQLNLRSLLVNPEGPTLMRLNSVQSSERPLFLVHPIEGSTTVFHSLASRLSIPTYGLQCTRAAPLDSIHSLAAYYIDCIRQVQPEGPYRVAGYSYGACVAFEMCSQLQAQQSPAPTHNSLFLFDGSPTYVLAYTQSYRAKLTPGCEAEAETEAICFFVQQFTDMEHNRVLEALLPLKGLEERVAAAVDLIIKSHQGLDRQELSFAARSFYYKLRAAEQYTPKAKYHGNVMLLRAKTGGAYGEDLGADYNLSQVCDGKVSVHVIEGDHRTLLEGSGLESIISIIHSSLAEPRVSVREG
T3 sequence (Q9NZJ5 whole entry): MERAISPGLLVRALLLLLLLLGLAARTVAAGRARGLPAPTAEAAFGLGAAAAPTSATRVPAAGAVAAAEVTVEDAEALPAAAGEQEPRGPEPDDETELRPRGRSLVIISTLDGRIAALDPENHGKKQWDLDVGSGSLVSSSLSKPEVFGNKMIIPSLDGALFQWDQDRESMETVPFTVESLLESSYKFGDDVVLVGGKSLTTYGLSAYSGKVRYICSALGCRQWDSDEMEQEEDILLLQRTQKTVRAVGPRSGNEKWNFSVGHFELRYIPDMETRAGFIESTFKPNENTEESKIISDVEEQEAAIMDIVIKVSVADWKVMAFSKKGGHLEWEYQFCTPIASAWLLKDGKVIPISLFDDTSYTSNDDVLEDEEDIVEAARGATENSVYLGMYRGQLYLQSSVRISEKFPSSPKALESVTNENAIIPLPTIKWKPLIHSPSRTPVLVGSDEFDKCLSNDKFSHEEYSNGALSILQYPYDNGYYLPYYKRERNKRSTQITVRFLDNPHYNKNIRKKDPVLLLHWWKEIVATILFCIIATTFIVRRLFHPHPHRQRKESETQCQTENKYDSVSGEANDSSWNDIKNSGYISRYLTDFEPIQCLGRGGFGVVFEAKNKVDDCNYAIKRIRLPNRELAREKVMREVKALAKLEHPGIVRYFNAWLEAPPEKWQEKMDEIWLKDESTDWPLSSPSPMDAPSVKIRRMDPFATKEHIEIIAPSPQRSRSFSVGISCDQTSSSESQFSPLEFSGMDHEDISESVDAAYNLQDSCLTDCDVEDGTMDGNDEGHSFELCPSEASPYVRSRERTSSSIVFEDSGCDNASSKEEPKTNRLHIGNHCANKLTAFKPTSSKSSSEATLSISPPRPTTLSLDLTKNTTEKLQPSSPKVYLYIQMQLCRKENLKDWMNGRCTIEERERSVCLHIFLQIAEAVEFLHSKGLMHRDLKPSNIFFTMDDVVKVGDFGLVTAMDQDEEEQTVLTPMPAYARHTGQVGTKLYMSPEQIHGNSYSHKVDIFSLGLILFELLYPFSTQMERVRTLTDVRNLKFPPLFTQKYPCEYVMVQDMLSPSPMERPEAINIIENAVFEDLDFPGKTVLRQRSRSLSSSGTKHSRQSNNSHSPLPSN
Chain of Melanin-concentrating hormone receptor 1 (Q99705 whole entry): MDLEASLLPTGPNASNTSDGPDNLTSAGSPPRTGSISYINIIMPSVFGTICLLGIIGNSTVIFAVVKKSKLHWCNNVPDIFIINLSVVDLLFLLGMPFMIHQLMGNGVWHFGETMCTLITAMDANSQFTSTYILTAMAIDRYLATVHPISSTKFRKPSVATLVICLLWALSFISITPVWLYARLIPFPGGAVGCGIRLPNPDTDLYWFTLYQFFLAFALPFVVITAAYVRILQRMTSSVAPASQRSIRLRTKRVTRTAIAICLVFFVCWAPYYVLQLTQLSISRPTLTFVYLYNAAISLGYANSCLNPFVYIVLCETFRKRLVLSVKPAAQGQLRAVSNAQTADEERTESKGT
Chain of Neurotensin receptor type 1 (P30989 whole entry): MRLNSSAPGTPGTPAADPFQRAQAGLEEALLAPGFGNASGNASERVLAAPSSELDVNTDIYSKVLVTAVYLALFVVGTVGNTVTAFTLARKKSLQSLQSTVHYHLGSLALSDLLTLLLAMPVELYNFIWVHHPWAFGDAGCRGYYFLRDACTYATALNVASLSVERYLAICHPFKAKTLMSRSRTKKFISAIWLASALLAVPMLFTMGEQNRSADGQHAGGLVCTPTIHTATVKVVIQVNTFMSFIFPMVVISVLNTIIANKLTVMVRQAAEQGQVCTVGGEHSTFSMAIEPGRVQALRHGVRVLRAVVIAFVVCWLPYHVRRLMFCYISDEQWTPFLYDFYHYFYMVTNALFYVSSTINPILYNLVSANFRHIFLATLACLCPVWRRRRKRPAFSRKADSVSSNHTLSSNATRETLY
Chain of Cyclin-dependent kinase 5/CDK5 activator 1 (Q00535 whole entry): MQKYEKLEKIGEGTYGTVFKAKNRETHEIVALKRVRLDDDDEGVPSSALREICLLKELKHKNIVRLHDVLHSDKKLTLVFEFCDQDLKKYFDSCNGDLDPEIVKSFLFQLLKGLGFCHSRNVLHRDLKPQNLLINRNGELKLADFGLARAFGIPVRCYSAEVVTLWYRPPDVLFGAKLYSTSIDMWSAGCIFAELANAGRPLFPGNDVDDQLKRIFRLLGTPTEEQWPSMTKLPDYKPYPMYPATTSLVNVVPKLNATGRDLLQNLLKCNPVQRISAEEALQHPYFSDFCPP
Chain of Cyclin-dependent kinase 5/CDK5 activator 1 (Q15078 whole entry, further chain): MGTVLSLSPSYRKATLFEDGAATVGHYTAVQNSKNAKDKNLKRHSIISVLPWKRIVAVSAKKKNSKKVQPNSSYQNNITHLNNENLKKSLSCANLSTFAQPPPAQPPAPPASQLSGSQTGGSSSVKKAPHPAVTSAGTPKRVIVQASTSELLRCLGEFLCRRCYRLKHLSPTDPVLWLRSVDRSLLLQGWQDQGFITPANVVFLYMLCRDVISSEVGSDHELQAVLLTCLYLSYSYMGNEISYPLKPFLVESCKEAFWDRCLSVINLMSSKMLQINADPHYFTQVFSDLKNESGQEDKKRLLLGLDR

For `N=C(N)NS(=O)(=O)c1ccc(NC(=S)NC(=O)Cc2ccc(Cl)cc2)cc1`, in experiment [1], the IC50 is 21.8 µM (not active).

Take `Cc1ccc(-c2ccccc2)n1-c1ccc(O)c(C(=O)O)c1`: the Ki in [2] was 80.3 µM (inactive).

On to `CCC(C)(C)C1CCc2n[nH]c(C(=O)NCCN3CCOCC3)c2C1` (stereo unspecified), for which the AC50 in experiment [3] was 20.9 µM (active).

As for `CC(C)CN1C(=O)/C(=C/c2c[nH]nc2-c2ccccc2)SC1=S`, the AC50 in experiment [4] is 2.59 µM (active). Besides, in experiment [5], the EC50 is 15 µM (active).

Consider `CC1(C(=O)O)CCC(C(=O)Nc2ccc3ccccc3c2)C1(C)C` (stereo unspecified), for which, in experiment [6], the IC50 was 12.5 µM (active). The CC50 in experiment [7] is > 100 µM (active).

As for `COc1cc(/C=C(\C#N)c2nc3ccccc3s2)cc([N+](=O)[O-])c1O`, the IC50 is 33.7 µM (active) in [8]; > 50 µM (active) in experiment [9]; 10 µM (active) in experiment [10]; 11 µM (active) in [11]; 12.4 µM (active) in experiment [13]. The EC50 is > 150 µM (inactive) in experiment [12] and > 38 µM (not active) in experiment [14].

Regarding `CC(C)C(=O)NNc1ccc(C(F)(F)F)cn1`, the EC50 in experiment [15] and in experiment [16] was > 55.7 µM (not active) throughout.

Usually IC50 stands for the concentration needed to halve the response being measured. By Ki is commonly meant the equilibrium dissociation constant of an inhibitor or competing ligand from its target. Broadly, the AC50 is the concentration giving half of the maximal activity seen. For orientation: EC50 means the concentration giving half of the maximal effect. Broadly, the CC50 is the concentration at which the toxic effect on the cells reaches its halfway point.

These data come from ChEMBL document CHEMBL1201862, “PubChem BioAssay data set” (2004).
